In patent publication US11912785B2, “Peptide compositions for slowing degradation of vitamin mineral supplements, foods, pharmaceutical and cosmetics” (priority 2017, dated 2024):
No end group written: not given here.

Legend:
[1] = Decay of sodium ascorbate in HEPES pH 7.2 with 63 μM cupric sulfate; assay type: physicochemical
Experimental: Example 11 The effect of 1,1,1-Ala-Asp-Asp on the decay of sodium ascorbate in 10 mM HEPES pH 7.2 at 37 was compared with 1,1,1-triaspartate in the presence of 63 μM cupric sulfate (equivalent to 2 mg of elemental copper per 500 mL). […] This difference is somewhat offset by the ˜12% lower molecular weight of the former.

[2] = USP type 2 dissolution of Product #1a with peptide in the medium; conditions: for ascorbic acid recovered / maintained (in words): 0.25 mM, 45 min
Experimental: (§1) The dissolution studies described herein used a U.S. Pharmacopeia (USP) type 2 apparatus with 500 ml distilled H2O at 37° C. stirred at 50 RPM. […] Oxygen concentration was monitored with a Clarke electrode calibrated against argon and air sparged water at 37 C. The disappearance of several components was gauged against a mixture of pure standards of known concentration.
Product #1a also contained caffeine.

[3] = Effect of cupric sulfate on folic acid plus sodium ascorbate in various buffers; conditions: for initial ascorbate lost after 2 hours: 10 mM HEPES pH 7.2, 150 μM cupric sulfate
Experimental: (§2) Aqueous solutions of air saturated buffer, peptide, one or more vitamins, and metal salt (e.g. ferrous chloride or cupric sulfate) were combined and incubated at 37 C, unless otherwise stated. Samples were injected into the HPLC system as a function of time and monitored by a photodiode array detector.
Reactions were continuously but slow sparged with air so that oxygen would not become limiting.

[4] = USP type 2 dissolution of Product #1b with copper added as CuSO4 and peptide; assay type: physicochemical
Experimental: as §1

[5] = Decomposition of 5-MTHF in 1 mM HCl with cupric sulfate; assay type: physicochemical; conditions: 3 mM peptide, 150 μM cupric sulfate, 37 C
Experimental: The decomposition of 5-MTHF is slower in acidic solutions than at neutral pH, and this was found even in the presence of cupric ions. […] With 3 mM 1,1,1-triaspartic free acid also present the time to half decomposition was increased to around 30 minutes.

[6] = Effect of cupric sulfate on vitamin B12, thiamine, folic acid and sodium ascorbate in MES pH 6.2; assay type: physicochemical; conditions: 3 mM peptide; 10 mM MES pH 6.2, 150 μM cupric sulfate
Experimental: In the presence of 3 mM 1,1,1-triaspartate (as the tetra-sodium salt) the loss of Vitamin B12 was limited to about 20% even after 2 hours. Thiamine also rapidly disappeared by 40% over the first 26 minutes and then remained constant in the absence of an aspartate peptide. However, with 3 mM Asp-Asp-Asp included only 8% was lost at 36 min.

[7] = Decay of 5-MTHF in HEPES pH 7.2 with cupric sulfate and peptide; assay type: physicochemical; conditions: for half-life of 5-MTHF: 150 μM cupric sulfate
Experimental: as §2

[8] = Water uptake and handling of peptide salts on exposure to atmosphere or humidity; assay type: physicochemical; conditions: for handling state after exposure to the atmosphere / weight gain (water) when left open to the atmosphere: ambient
Experimental: One such matrix is microcrystalline cellulose which is commonly used as an excipient in vitamin and mineral products. A method of combining the peptide salt with the excipient was also developed in which the former is dissolved in a suitable solvent, for example water, the excipient added with stirring, and removing the solvent from the mixture, for example by rotary evaporation under reduced pressure or lyophilization.
The resulting material was crushed to pass through a 200 mesh sieve.
The precipitate was resuspended in 0.5 ml ice-cold water, centrifuged again, and the second supernate discarded.
The precipitate was resuspended in 0.5 ml ice-cold water, recentrifuged, and the second supernate discarded. […] This was centrifuged and dried under high vacuum over P2O5.

[9] = 3 mM peptide, 3 mM ferrous chloride, 40 mM MES pH 6.2
Experimental: as §2

[10] = product #2; 1 mM peptide
Experimental: as §1

[11] = 3 mM peptide, 50 mM MES pH 5.5, 150 μM cupric sulfate
[12] = 2 mM peptide, 25 μM 5-MTHF, 10 mM HEPES pH 7.2, 37 C

## 1,1,1-Ala-Asp-Asp
[1]
  effectiveness compared with triaspartic acid on a molar basis: about half as effective
[1]; 0.25 mM peptide, 63 μM cupric sulfate, 10 mM HEPES pH 7.2, 37
  1st-order rate of ascorbate loss compared with Asp-Asp-Asp: almost twice as fast

## N[C@@H](CC(=O)O)C(=O)O [aspartic acid, reference compound]
[2]; Product #1a, 0.25 mM peptide
  rate of oxygen consumption compared with no peptide: no improvement
[2]; Product #1a
  ascorbic acid recovered / maintained (in words): no improvement

## Asp-Asp-Asp
[3]; [11]
  folic acid recovered after 82 minutes: more than 50%
  time until ascorbate completely consumed: 47 min
[4]; 1 mg of copper added as CuSO4, compared with 2 mg
  concentration required for half maximal effect in preventing loss of ascorbate: somewhat lower concentration
[4]; copper added as CuSO4, peptide 0.05 to 0.5 mM, hyperbolic fit, read-out: concentration required for 50% of maximal effectiveness in preventing ascorbate loss
  EC50: ~50 µM
[5]
  time to half decomposition of 5-MTHF: around 30 minutes
[2]; Product #1a, 0.25 mM peptide
  extent of caffeine oxidation to 1,3,7-trimethyluric acid compared with no peptide: more than halved
  folic acid in filtrate, of the labeled amount, 10 minute sample: about 55%
  folic acid in filtrate, of the labeled amount, 45 minute sample: about 70%
  p-aminobenzoyl-glutamate in the final sonicated sample compared with absence of peptide: decreased to half
  thiamine present at 45 minutes, of labeled content: 104%
  thiamine present at 45 minutes, of the actual content of the tablets: 83%
[6]
  thiamine lost at 36 min: 8%
[7]; 0.5 mM peptide
  half-life of 5-MTHF (in words): longer than Asp2

## Asp-Asp-Asp tetrasodium salt [tetra-sodium 1,1,1-triaspartate, Tetra-sodium-1,1,1-triaspartate]
[3]; 1 mM peptide
  initial ascorbate lost after 2 hours: 33%
[3]; 3 mM peptide
  initial ascorbate lost after 2 hours: 18%
[3]; 3 mM peptide, 10 mM MES pH 6.2, 150 μM cupric sulfate, air sparged
  ascorbate remaining by 32 minutes: 35%
[8]; open to the atmosphere
  handling state after exposure to the atmosphere: became sticky
  weight gain (water) when left open to the atmosphere: 14%
[2]; Product #1a, 0.125 mmole peptide in 500 mL (0.25 mM), initial pH ~6.5, 37° C.
  ascorbic acid recovered after 45 min, higher than with water only: about 16 fold
[2]; Product #1a, 0.25 mM peptide
  oxygen remaining after 45 min, part of the original concentration: about a third
  rate of oxygen consumption compared with no peptide: dramatically decreased
[9]
  time without significant loss of 5-MTHF: about 50 minutes
[9]; after about 50 minutes
  decrease of 5-MTHF thereafter: about 17 % per hour
[10]
  increase of average recovery of ascorbic acid at 45 minutes over no peptide: 16%
  increase of average recovery of thiamine at 45 minutes over no added peptide: 20%
[6]
  loss of Vitamin B12 after 2 hours: about 20%
[7]; [12]
  half-life of 5-MTHF: 3.3 h

## Calcium1.5-1,1,1-triaspartate [Example D]
[8]; 90% RH, 24 hours
  handling state after 24 hours at 90% RH: clumped slightly, but was easy to break up and was not sticky
[8]; open to the atmosphere
  handling state after exposure to the atmosphere: remained free flowing flakes that were never sticky
  weight gain (water) when left open to the atmosphere: ~10%

## Ferrous 1,1,1-triaspartate [Example P]
[8]; open to air via a drying tube
  color / oxidation when open to air via a drying tube: did not change color or significantly oxidize
[8]; open to the atmosphere
  weight gain (water) when left open to the atmosphere: 13%
[8]; open to the atmosphere, several days
  color / oxidation when kept open to the atmosphere: became dark brown due to partial oxidation to iron(III)

## N-acetyl-1,1,1-triaspartic acid [reference compound]
[2]; test conditions not stated
  ability to inhibit oxidative destruction of other multivitamin components: lack of effectiveness

## penta-sodium 1,1,1,1-tetraaspartate (DDDD; also: penta-sodium salt)
[7]
  effectiveness compared with triaspartic acid on a molar basis: just as effective on a molar basis
[7]; [12]
  half-life of 5-MTHF: 2.97 h

## tri-sodium 1,1,1-His-Asp-Asp [reference compound]
[2]; Product #1a, 0.25 mM peptide, pH ~6.5
  maintenance of ascorbate or thiamine, diminishing oxygen consumption, or oxidation of other components: No improvement

## tri-sodium 1,1-diaspartate
[2]; Product #1a, 0.25 mM peptide
  profile of folic acid appearance in solution: greater than without any peptide, and similar to that liberated by 0.05 mM Asp-Asp-Asp
  profile of p-aminobenzoyl-glutamate formation: suppressed in comparison to without any peptide, and similar to 0.05 mM Asp-Asp-Asp
  profile of thiamine appearance in solution: not significantly different than without peptide
  rate of oxygen consumption compared with no peptide: less than without a peptide
[2]; Product #1a
  ascorbic acid recovered / maintained (in words): greater than with no Asp2 but somewhat less than in the presence of 0.25 mM Asp-Asp-Asp
[7]; [12]
  half-life of 5-MTHF: 1.2 h
[7]; 3 mM peptide, HEPES pH 7.2, 37 C
  half-life of 5-MTHF: 1.45 h
[7]; 4 mM peptide, HEPES pH 7.2, 37 C
  half-life of 5-MTHF: 1.67 h
